Measured values published in article PMC11604428, “UPLC-ESI/MS^n metabolic profiling of Cedrela odorata L. and Toona ciliata M. Roem and in vitro investigation of their anti-diabetic activity supported with molecular docking studies” (Frontiers in Chemistry, 2024).

What was measured:
[1] = target: α-glucosidase (Saccharomyces cerevisiae, UniProt P53341); design: method as in Shen et al., 2023; conditions: ref Shen et al., 2023; cited from earlier work
[2] = tested on: α-amylase; design: method as in Shen et al., 2023; conditions: ref Shen et al., 2023; cited from earlier work
[3] = tested on: streptozotocin-induced diabetic mice; design: method as in Lee et al., 2010; Jang et al., 2009; Jang et al., 2010; conditions: streptozotocin-nicotinamide-induced, streptozotocin + high-fat diet and streptozotocin-induced diabetic mice, ref Lee et al., 2010, Jang et al., 2009; cited from earlier work
[4] = tested on: α-amylase; experiment: α-Amylase inhibition assay; type: biochemical; conditions: mean ± SD, triplicate
Method: The α-amylase inhibitory activities of the tested Cedrela extracts were determined according to the standard published procedure with minor amendments ([Kazeem et al., 2013]). The enzyme solution was prepared by dissolving α-amylase in 20 mM phosphate buffer (pH = 6.9) at a concentration of 0.50 mg/mL. Then, 1 mL of different concentrations of the tested extract (0.01–100 μg/mL) was mixed with 1 mL of enzyme solution and allowed to sit at room temperature for 10 min. After incubation, 1 mL of 0.50% starch solution was included to the mixture and further incubated at room temperature for 10 min. The reaction was then ended by addition of 3,5-dinitrosalicylic acid (2 mL) and then heating the reaction mixture in a boiling water bath for 5 min. After cooling, the absorbance of the mixture was colorimetrically determined at 565 nm. Pioglitazone was used as a standard drug.
The assays were performed in triplicates, and the obtained values are stated as mean ± SD. For the in vitro investigation of α-amylase and α-glucosidase inhibitory properties, the IC50 was obtained from the graph plots of the dose–response curves at each oil concentration via Graph Pad Prism® software (San Diego, CA, United States).

[5] = tested on: C57BL/KsJ-db/db mice; design: method as in Jung et al., 2006; conditions: ref Jung et al., 2006; cited from earlier work

Chain of α-glucosidase (P53341 whole entry): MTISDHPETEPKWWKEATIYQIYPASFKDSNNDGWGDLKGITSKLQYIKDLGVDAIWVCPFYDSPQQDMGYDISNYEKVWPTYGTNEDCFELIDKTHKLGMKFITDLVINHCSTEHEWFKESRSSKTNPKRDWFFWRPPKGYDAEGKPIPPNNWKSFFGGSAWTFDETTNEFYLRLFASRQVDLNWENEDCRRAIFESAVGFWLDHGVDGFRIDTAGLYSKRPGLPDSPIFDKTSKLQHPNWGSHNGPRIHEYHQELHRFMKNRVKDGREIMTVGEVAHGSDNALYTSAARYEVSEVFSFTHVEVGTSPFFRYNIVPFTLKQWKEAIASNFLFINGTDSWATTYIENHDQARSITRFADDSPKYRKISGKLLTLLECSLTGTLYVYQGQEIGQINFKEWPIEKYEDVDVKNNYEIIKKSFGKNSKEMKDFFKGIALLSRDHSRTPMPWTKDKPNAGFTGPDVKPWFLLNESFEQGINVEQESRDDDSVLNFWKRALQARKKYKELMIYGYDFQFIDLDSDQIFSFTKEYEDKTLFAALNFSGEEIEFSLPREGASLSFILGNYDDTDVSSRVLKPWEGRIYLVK

In the case of `O=c1c(O)c(-c2ccc(O)c(O)c2)oc2cc(O)cc(O)c12` [quercetin], the “inhibition of α-glucosidase activity” value [1] is listed as “markedly inhibited” and the “inhibition of α-amylase activity” value [2] is listed as “markedly inhibited”.

In the case of `C[C@H]1[C@H](C)CC[C@]2(C(=O)O)CC[C@]3(C)C(=CC[C@@H]4[C@@]5(C)CC[C@H](O)C(C)(C)[C@@H]5CC[C@]43C)[C@H]12` [Ursolic acid], the “effect on blood glucose levels” value [3] is listed as “positive effect on reducing blood glucose levels”.

With `CCc1ccc(CCOc2ccc(CC3SC(=O)NC3=O)cc2)nc1` (stereo not shown) [Pioglitazone] the “α-Amylase inhibition (%)” value ([4]; concentration 0.01 µg/mL) was 12.50 ± 2.05%, the “α-Amylase inhibition (%)” value ([4]; concentration 0.10 µg/mL) was 27.70 ± 1.28% and the “α-Amylase inhibition (%)” value ([4]; concentration 1.00 µg/mL) was 45.40 ± 2.45%. The “α-Amylase inhibition (%)” value ([4]; concentration 10.00 µg/mL) was 80.60 ± 0.23%, the “α-Amylase inhibition (%)” value ([4]; concentration 100.00 µg/mL) was 91.70 ± 1.05% and the “α-Amylase inhibition IC50” value [4] was 2.17 ± 0.23 µg/mL.

In the case of `O=C(O)/C=C/c1ccc(O)c(O)c1` [Caffeic acid], the anti-hyperglycemic effect [5] is listed as “anti-hyperglycemic properties”.
